From ChEMBL document CHEMBL4340549, “Design, synthesis and biological evaluation of isochroman-4-one hybrids bearing piperazine moiety as antihypertensive agent candidates” (Bioorg Med Chem, 2019)

How the values were obtained:
Rattus norvegicus [1] = species: Rattus norvegicus; test: Ratio of pA2 for alpha-1b adrenergic receptor in SPF rat spleen to pA2 for alpha-1a adrenergic receptor in SPF rat prostatic vas deferens; assay type: tissue-based
Rattus norvegicus [2] = test: Antihypertensive activity in spontaneously hypertensive rat assessed as diastolic arterial pressure at 80 mg/kg, po measured after 2 hrs by tail-cuff method (reference value: 149.90 +/- 6 mmHg); assay type: functional
Rattus norvegicus [3] = test: Effect on heart rate in spontaneously hypertensive rat assessed as heart rate level at 80 mg/kg, po measured after 6 hrs by tail-cuff method (reference value: 411.12 +/- 19.1 bpm); assay type: ADME, organism-based; conditions: in vivo
Rattus norvegicus [4] = test: Antihypertensive activity in spontaneously hypertensive rat assessed as mean arterial pressure at 80 mg/kg, po measured after 0 hrs by tail-cuff method (reference value: 161.70 +/- 5.12 mmHg); assay type: functional
Rattus norvegicus [5] = test: Antihypertensive activity in spontaneously hypertensive rat assessed as reduction in mean arterial pressure at 80 mg/kg, po measured after 4 hrs by tail-cuff method; assay type: functional; set-up: scale not given: the % may be the effect or the level left
[6] = target: T1, Alpha-1B adrenergic receptor (Rattus norvegicus, UniProt P15823); test: Antagonist activity at alpha-1b adrenergic receptor in SPF rat spleen assessed as inhibition of noradrenaline-induced contractions; assay type: tissue-based; conditions: read-out: pA2 (converted)
T1 sequence (P15823 whole entry): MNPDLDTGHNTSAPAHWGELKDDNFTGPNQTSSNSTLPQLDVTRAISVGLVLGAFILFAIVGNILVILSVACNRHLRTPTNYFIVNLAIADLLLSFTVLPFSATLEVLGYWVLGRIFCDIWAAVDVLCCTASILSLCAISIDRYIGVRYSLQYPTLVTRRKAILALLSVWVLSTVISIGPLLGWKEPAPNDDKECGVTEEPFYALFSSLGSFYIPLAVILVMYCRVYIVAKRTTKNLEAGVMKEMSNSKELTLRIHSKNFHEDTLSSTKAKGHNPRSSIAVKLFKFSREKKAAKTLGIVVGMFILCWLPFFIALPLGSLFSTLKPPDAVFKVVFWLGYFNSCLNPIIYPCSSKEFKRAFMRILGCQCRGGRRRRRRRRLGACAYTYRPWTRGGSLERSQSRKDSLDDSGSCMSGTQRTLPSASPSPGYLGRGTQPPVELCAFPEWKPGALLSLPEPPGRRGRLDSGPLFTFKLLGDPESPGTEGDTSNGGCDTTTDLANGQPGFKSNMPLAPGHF

Thoracic aorta [7] = test: Vasodilatory activity in Sprague-Dawley rat thoracic aorta assessed as inhibition of noradrenaline-induced contractions at 100 uM relative to untreated control; assay type: functional
Rattus norvegicus [8] = test: Antihypertensive activity in spontaneously hypertensive rat assessed as mean arterial pressure at 80 mg/kg, po measured after 2 hrs by tail-cuff method (reference value: 163 +/- 8.1 mmHg); assay type: functional
Rattus norvegicus [9] = test: Antihypertensive activity in spontaneously hypertensive rat assessed as mean arterial pressure at 80 mg/kg, po measured after 4 hrs by tail-cuff method (reference value: 150.30 +/- 9.26 mmHg); assay type: functional
Rattus norvegicus [10] = test: Antihypertensive activity in spontaneously hypertensive rat assessed as diastolic arterial pressure at 80 mg/kg, po measured after 1 hr by tail-cuff method (reference value: 147.33 +/- 9.8 mmHg); assay type: functional
Rattus norvegicus [11] = test: Antihypertensive activity in spontaneously hypertensive rat assessed as mean arterial pressure at 80 mg/kg, po measured after 6 hrs by tail-cuff method (reference value: 151.48 +/- 12.24 mmHg); assay type: functional
Rattus norvegicus [12] = test: Antihypertensive activity in spontaneously hypertensive rat assessed as diastolic arterial pressure at 80 mg/kg, po measured after 4 hrs by tail-cuff method (reference value: 136.12 +/- 5.3 mmHg); assay type: functional
Rattus norvegicus [13] = test: Antihypertensive activity in spontaneously hypertensive rat assessed as mean arterial pressure at 80 mg/kg, po measured after 8 hrs by tail-cuff method (reference value: 153.55 +/- 11.43 mmHg); assay type: functional
Rattus norvegicus [14] = test: Antihypertensive activity in spontaneously hypertensive rat assessed as diastolic arterial pressure at 80 mg/kg, po measured after 6 hrs by tail-cuff method (reference value: 137.54 +/- 9.2 mmHg); assay type: functional
Rattus norvegicus [15] = test: Effect on heart rate in spontaneously hypertensive rat assessed as heart rate level at 80 mg/kg, po measured after 0 hrs by tail-cuff method (reference value: 413.17 +/- 10.5 bpm); assay type: ADME, organism-based; conditions: in vivo
[16] = target: T2, Alpha-1D adrenergic receptor (Rattus norvegicus, UniProt P23944); test: Antagonist activity at alpha-1D adrenergic receptor in SPF rat vas thoracic aorta assessed as inhibition of noradrenaline-induced contractions; conditions: read-out: pA2 (converted)
T2 sequence (P23944 whole entry): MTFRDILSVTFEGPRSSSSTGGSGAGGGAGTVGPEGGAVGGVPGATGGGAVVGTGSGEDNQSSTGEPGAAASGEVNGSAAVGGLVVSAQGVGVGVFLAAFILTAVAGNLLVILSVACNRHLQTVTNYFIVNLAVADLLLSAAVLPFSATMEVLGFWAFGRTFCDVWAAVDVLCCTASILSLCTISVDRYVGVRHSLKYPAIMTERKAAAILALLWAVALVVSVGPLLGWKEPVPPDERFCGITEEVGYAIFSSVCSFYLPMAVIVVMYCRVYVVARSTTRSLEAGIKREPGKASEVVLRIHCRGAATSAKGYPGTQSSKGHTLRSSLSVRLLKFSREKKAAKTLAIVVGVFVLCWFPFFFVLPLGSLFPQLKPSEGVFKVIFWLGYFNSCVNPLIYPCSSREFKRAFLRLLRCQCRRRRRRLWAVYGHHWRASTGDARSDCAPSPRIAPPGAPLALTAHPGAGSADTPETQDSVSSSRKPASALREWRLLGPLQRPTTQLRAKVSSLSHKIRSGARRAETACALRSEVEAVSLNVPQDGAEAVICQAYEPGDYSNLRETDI

Rattus norvegicus [17] = test: Antihypertensive activity in spontaneously hypertensive rat assessed as systolic arterial pressure at 80 mg/kg, po measured after 1 hr by tail-cuff method (reference value: 185.35 +/- 10.30 mmHg); assay type: functional
Rattus norvegicus [18] = test: Effect on heart rate in spontaneously hypertensive rat assessed as heart rate level at 80 mg/kg, po measured after 1 hr by tail-cuff method (reference value: 415.25 +/- 14.7 bpm); assay type: ADME, organism-based; conditions: in vivo
Rattus norvegicus [19] = test: Effect on heart rate in spontaneously hypertensive rat assessed as heart rate level at 80 mg/kg, po measured after 2 hrs by tail-cuff method (reference value: 413.2 +/- 15.2 bpm); assay type: ADME, organism-based; conditions: in vivo
Rattus norvegicus [20] = species: Rattus norvegicus; test: Ratio of pA2 for alpha-1b adrenergic receptor in SPF rat spleen to pA2 for alpha-1D adrenergic receptor in SPF rat vas thoracic aorta
Rattus norvegicus [21] = test: Antihypertensive activity in spontaneously hypertensive rat assessed as diastolic arterial pressure at 80 mg/kg, po measured after 0 hrs by tail-cuff method (reference value: 149.50 +/- 5.4 mmHg); assay type: functional
Rattus norvegicus [22] = test: Antihypertensive activity in spontaneously hypertensive rat assessed as systolic arterial pressure at 80 mg/kg, po measured after 6 hrs by tail-cuff method (reference value: 179.36 +/- 18.33 mmHg); assay type: functional
Thoracic aorta [23] = test: Vasodilatory activity in Sprague-Dawley rat thoracic aorta assessed as inhibition of noradrenaline-induced contractions at 10 uM relative to untreated control; assay type: functional

Ratio (Rattus norvegicus [1]): 6.3
Kb [6]: 35.5 nM
Kb [16]: 189 to 195 nM
Ratio (Rattus norvegicus [20]): 5.6
SMILES: COc1cc2c(cc1OCC(O)CN1CCN(C(=O)C3CCCO3)CC1)C(=O)C(C)OC2 (stereo not drawn)
Activity (Rattus norvegicus [2]): 131.86 mmHg
Activity (Rattus norvegicus [3]): 411.01 bpm
Activity (Rattus norvegicus [4]): 166.7 mmHg
Activity (Rattus norvegicus [5]): 23.7%
inhibition at 100 µM (Thoracic aorta [7]): 64%
Activity (Rattus norvegicus [8]): 138.17 mmHg
Activity (Rattus norvegicus [9]): 127.12 mmHg
Activity (Rattus norvegicus [10]): 144.15 mmHg
Activity (Rattus norvegicus [11]): 140.83 mmHg
Activity (Rattus norvegicus [12]): 120.54 mmHg
Activity (Rattus norvegicus [13]): 151.39 mmHg
Activity (Rattus norvegicus [14]): 132.51 mmHg
Activity (Rattus norvegicus [15]): 415.33 bpm
Activity (Rattus norvegicus [17]): 169.21 mmHg
Activity (Rattus norvegicus [18]): 409.3 bpm
Activity (Rattus norvegicus [19]): 408.14 bpm
Activity (Rattus norvegicus [21]): 156.23 mmHg
Activity (Rattus norvegicus [22]): 157.46 mmHg
inhibition at 10 µM (Thoracic aorta [23]): 41.6%
